# Test results published in the supplement of paper PMC10307832.
# Experiments:
# Test in all cases: relative viability (nuclei count vs DMSO), 5 days (fraction); higher = more cells survive
# [1] = test system: NCI-H1975
# Procedure, shortened: (§1)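 Lung cancer cell lines were seeded in 1536-well plates and dosed by pin tool the next day, with either a single drug or a fixed anchor-drug dose combined with five library-drug doses (not always all listed) spaced in √10 steps. Five days later, one step fixed the cells and stained their nuclei (final 0.05% Triton X-100, 1% formaldehyde, 1 ug/ml Hoechst), and nuclei were counted on 4× images. Relative viability is the nuclei count in treated wells divided by the count in vehicle wells, and each value is the median of duplicate plates.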
# [2] = test system: SK-MES-1
# Procedure, shortened: as §1
# [3] = test system: RERF-LC-KJ
# Procedure, shortened: as §1
# [4] = test system: NCI-H1395
# Procedure, shortened: as §1
# [5] = test system: NCI-H2087
# Procedure, shortened: as §1
# [6] = test system: NCI-H2085
# Procedure, shortened: as §1
# [7] = test system: NCI-H1993
# Procedure, shortened: as §1
# [8] = test system: A-427
# Procedure, shortened: as §1
# [9] = test system: NCI-H2023
# Procedure, shortened: as §1
# [10] = test system: EPLC-272H
# Procedure, shortened: as §1
# [11] = test system: NCI-H2170
# Procedure, shortened: as §1
# [12] = test system: COR-L 105
# Procedure, shortened: as §1
# [13] = test system: NCI-H1651
# Procedure, shortened: as §1
# [14] = test system: NCI-H647
# Procedure, shortened: as §1
# [15] = test system: LCLC-103H
# Procedure, shortened: as §1
# [16] = test system: NCI-H650
# Procedure, shortened: as §1
# [17] = test system: NCI-H596
# Procedure, shortened: as §1
# [18] = test system: HOP-62
# Procedure, shortened: as §1
# [19] = test system: CAL-12T
# Procedure, shortened: as §1
# [20] = test system: COR-L23
# Procedure, shortened: as §1
# [21] = test system: PC-14
# Procedure, shortened: as §1
# [22] = test system: LXF-289
# Procedure, shortened: as §1
# [23] = test system: NCI-H3122
# Procedure, shortened: as §1
structure (smiles),measurement,setting,value
O=c1[nH]c2ccccc2n1C1CCN(CCCC(c2ccc(F)cc2)c2ccc(F)cc2)CC1 [Pimozide] + N=C(N)NC(=N)NCCc1ccccc1 [Phenformin] (partner 250 µM),relative viability,[1]; first compound 0.08 µM,0.427
same,relative viability,[1]; first compound 0.253 µM,0.395
same,relative viability,[1]; first compound 0.8 µM,0.414
same,relative viability,[1]; first compound 2.53 µM,0.454
same,relative viability,[1]; first compound 8 µM,0.391
same,relative viability,[2]; first compound 0.08 µM,0.628
same,relative viability,[2]; first compound 0.253 µM,0.619
same,relative viability,[2]; first compound 0.8 µM,0.664
same,relative viability,[2]; first compound 2.53 µM,0.587
same,relative viability,[2]; first compound 8 µM,0.603
same,relative viability,[3]; first compound 0.08 µM,0.416
same,relative viability,[3]; first compound 0.253 µM,0.467
same,relative viability,[3]; first compound 0.8 µM,0.409
same,relative viability,[3]; first compound 2.53 µM,0.264
same,relative viability,[3]; first compound 8 µM,0.401
same,relative viability,[4]; first compound 0.08 µM,0.411
same,relative viability,[4]; first compound 0.253 µM,0.405
same,relative viability,[4]; first compound 0.8 µM,0.411
same,relative viability,[4]; first compound 2.53 µM,0.42
same,relative viability,[4]; first compound 8 µM,0.403
same,relative viability,[5]; first compound 0.08 µM,0.5
same,relative viability,[5]; first compound 0.253 µM,0.47
same,relative viability,[5]; first compound 2.53 µM,0.464
same,relative viability,[5]; first compound 8 µM,0.393
same,relative viability,[6]; first compound 0.08 µM,0.681
same,relative viability,[6]; first compound 0.253 µM,0.732
same,relative viability,[6]; first compound 0.8 µM,0.58
same,relative viability,[6]; first compound 2.53 µM,0.705
same,relative viability,[6]; first compound 8 µM,0.637
same,relative viability,[7]; first compound 0.08 µM,0.477
same,relative viability,[7]; first compound 0.253 µM,0.509
same,relative viability,[7]; first compound 0.8 µM,0.455
same,relative viability,[7]; first compound 2.53 µM,0.522
same,relative viability,[7]; first compound 8 µM,0.49
same,relative viability,[8]; first compound 0.08 µM,0.368
same,relative viability,[8]; first compound 0.253 µM,0.361
same,relative viability,[8]; first compound 0.8 µM,0.36
same,relative viability,[8]; first compound 2.53 µM,0.238
same,relative viability,[8]; first compound 8 µM,0.26
same,relative viability,[9]; first compound 0.08 µM,0.41
same,relative viability,[9]; first compound 0.253 µM,0.403
same,relative viability,[9]; first compound 0.8 µM,0.397
same,relative viability,[9]; first compound 2.53 µM,0.385
same,relative viability,[9]; first compound 8 µM,0.354
same,relative viability,[10]; first compound 0.08 µM,0.29
same,relative viability,[10]; first compound 0.253 µM,0.306
same,relative viability,[10]; first compound 0.8 µM,0.342
same,relative viability,[10]; first compound 2.53 µM,0.0767
same,relative viability,[10]; first compound 8 µM,0.253
same,relative viability,[11]; first compound 0.08 µM,0.411
same,relative viability,[11]; first compound 0.253 µM,0.383
same,relative viability,[11]; first compound 0.8 µM,0.44
same,relative viability,[11]; first compound 2.53 µM,0.399
same,relative viability,[11]; first compound 8 µM,0.367
same,relative viability,[12]; first compound 0.253 µM,0.519
same,relative viability,[12]; first compound 0.8 µM,0.512
same,relative viability,[12]; first compound 2.53 µM,0.471
same,relative viability,[12]; first compound 8 µM,0.473
same,relative viability,[13]; first compound 0.08 µM,0.346
same,relative viability,[13]; first compound 0.253 µM,0.305
same,relative viability,[13]; first compound 0.8 µM,0.316
same,relative viability,[13]; first compound 2.53 µM,0.338
same,relative viability,[13]; first compound 8 µM,0.283
same,relative viability,[14]; first compound 0.08 µM,0.59
same,relative viability,[14]; first compound 0.253 µM,0.497
same,relative viability,[14]; first compound 0.8 µM,0.435
same,relative viability,[14]; first compound 2.53 µM,0.452
same,relative viability,[14]; first compound 8 µM,0.527
same,relative viability,[15]; first compound 0.08 µM,0.327
same,relative viability,[15]; first compound 0.253 µM,0.324
same,relative viability,[15]; first compound 0.8 µM,0.317
same,relative viability,[15]; first compound 2.53 µM,0.332
same,relative viability,[15]; first compound 8 µM,0.364
same,relative viability,[16]; first compound 0.08 µM,0.445
same,relative viability,[16]; first compound 0.253 µM,0.452
same,relative viability,[16]; first compound 0.8 µM,0.417
same,relative viability,[16]; first compound 2.53 µM,0.467
same,relative viability,[16]; first compound 8 µM,0.457
same,relative viability,[17]; first compound 0.08 µM,0.751
same,relative viability,[17]; first compound 0.253 µM,0.774
same,relative viability,[17]; first compound 0.8 µM,0.588
same,relative viability,[17]; first compound 2.53 µM,0.637
same,relative viability,[17]; first compound 8 µM,0.897
same,relative viability,[18]; first compound 0.08 µM,0.67
same,relative viability,[18]; first compound 0.253 µM,0.657
same,relative viability,[18]; first compound 2.53 µM,0.644
same,relative viability,[18]; first compound 8 µM,0.655
same,relative viability,[19]; first compound 0.08 µM,0.581
same,relative viability,[19]; first compound 0.253 µM,0.506
same,relative viability,[19]; first compound 0.8 µM,0.623
same,relative viability,[19]; first compound 2.53 µM,0.496
same,relative viability,[19]; first compound 8 µM,0.575
same,relative viability,[20]; first compound 0.08 µM,0.455
same,relative viability,[20]; first compound 0.253 µM,0.479
same,relative viability,[20]; first compound 0.8 µM,0.407
same,relative viability,[20]; first compound 2.53 µM,0.456
same,relative viability,[20]; first compound 8 µM,0.49
same,relative viability,[21]; first compound 0.253 µM,0.451
same,relative viability,[21]; first compound 2.53 µM,0.4
same,relative viability,[21]; first compound 8 µM,0.517
same,relative viability,[22]; first compound 0.08 µM,0.501
same,relative viability,[22]; first compound 0.253 µM,0.502
same,relative viability,[22]; first compound 0.8 µM,0.475
same,relative viability,[22]; first compound 2.53 µM,0.505
same,relative viability,[22]; first compound 8 µM,0.487
same,relative viability,[23]; first compound 0.08 µM,0.372
same,relative viability,[23]; first compound 0.253 µM,0.362
same,relative viability,[23]; first compound 0.8 µM,0.393
same,relative viability,[23]; first compound 2.53 µM,0.343
same,relative viability,[23]; first compound 8 µM,0.312
